Results published in patent US20240174680A1, “CDK2 INHIBITORS AND METHODS OF USING THE SAME” (Cedilla Therapeutics, Inc., priority 2021, published 2024).

These molecules were tested against CDK2/Cyclin E1 (Homo sapiens, UniProt P24941) (assay: CDK2/Cyclin E1 Caliper LabChip EZ Reader mobility shift assay). Settings: read-out: Caliper Assay (CDK2/CCNE1): IC50.
Assay type: biochemical
Design: purchased Eurofins 14-475
In short: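 Mobility-shift kinase assay: compound titrations preincubated 30 min with enzyme and ATP, reaction started with 5-FAM-QSPKKG-CONH2 peptide. Final 2.5 nM CDK2/Cyclin E1, 100 μM ATP, 1.5 μM peptide, HEPES pH 7.5; stopped with EDTA after 100 min. IC50 from four-parameter fit of normalized conversion ratio.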

Row | Structure (SMILES) | IC50 [µM]
1 | CCOC(=O)[C@H]1CCCN(C(=O)[C@@H](NC(=O)[C@@H]2CN(C(=O)c3cnn(Cc4ccccc4)c3)CC23CN(C(=O)[C@H]2CC2(C)C)C3)[C@@H](C)OCC2CCCCC2)C1 [I-482] | ≤ 0.01
2 | CC1(C)C[C@@H]1C(=O)N1CC2(CN(C(=O)c3cnn(Cc4ccccc4)c3)C[C@@H]2C(=O)NCCOCc2ccccc2)C1 [I-96B] | > 10
3 | CNC(=O)[C@@H](NC(=O)[C@@H]1CN(C(=O)c2ccccn2)CC12CN(C(=O)[C@H]1CC1(C)C)C2)[C@@H](C)OCc1ccccc1 [I-45A] | > 10
4 | Cc1ccc(CNC(=O)[C@@H]2CN(C(=O)c3cnn(Cc4ccccn4)c3)CC23CN(C(=O)[C@H]2CC2(C)C)C3)nn1 [I-417] | > 10
5 | CNC(=O)[C@@H](NC(=O)[C@H]1CN(C(=O)c2cnn(Cc3ccccc3)c2)CC12CN(C(=O)C1(C#N)CC1)C2)[C@@H](C)OCc1ccccc1 [I-73B] | > 10
6 | CNC(=O)[C@@H](NC(=O)[C@@H]1CN(C(=O)c2cnc(C3CC3)s2)CC12CN(C(=O)[C@H]1CC1(C)C)C2)[C@@H](C)OCC1CCCCC1 [I-178A] | 0.1 to 1
7 | C[C@@H](OCc1ccccc1)C(NC(=O)C1CN(C(=O)c2cnn(Cc3ccccc3)c2)CC12CN(C(=O)[C@H]1CC1(C)C)C2)C(=O)NCCOCCOCCO (stereo partly shown) [I-21] | 0.01 to 0.1
8 | COCC1CCCN(C(=O)[C@@H](NC(=O)C2CN(C(=O)c3cnn(Cc4ccccc4)c3)CC23CN(C(=O)[C@H]2CC2(C)C)C3)[C@@H](C)OCc2ccccc2)C1 (stereo partly shown) [I-64] | 0.01 to 0.1
9 | CNC(=O)[C@@H](NC(=O)[C@H]1CN(C(=O)c2cnn(Cc3ccccc3)c2)CC12CN(C(=O)C1(c3ccc(C(C)(C)C)cc3)CC1)C2)[C@@H](C)OCc1ccccc1 [I-80B] | > 10
10 | CC(=O)N1C[C@@H](C(=O)N[C@H](C(=O)N2CCCCC2)[C@@H](C)OCC2CCCCC2)C2(C1)CN(C(=O)[C@H]1CC1(C)C)C2 [I-118] | > 10
11 | C[C@@H](OCC1CCCCC1)[C@@H](COC1CCCNC1)NC(=O)[C@@H]1CN(C(=O)c2cncs2)CC12CN(C(=O)[C@H]1CC1(C)C)C2 (stereo partly shown) [I-332] | ≤ 0.01
12 | CNC(=O)[C@@H](NC(=O)[C@@H]1CN(C(=O)c2cnn(Cc3ccccc3)c2)CC12CN(C(=O)CC1(CO)CC1)C2)[C@@H](C)OCc1ccccc1 [I-92A] | > 10
13 | COC(=O)[C@H](CO)NC(=O)[C@@H]1CN(C(=O)c2cnn(Cc3ccccc3)c2)CC12CN(C(=O)[C@H]1CC1(C)C)C2 [I-209A] | 1 to 10
14 | COC(=O)c1ccc(C2CCN(C(=O)[C@@H](NC(=O)[C@@H]3CN(C(=O)c4cnn(Cc5ccccc5)c4)CC34CN(C(=O)[C@H]3CC3(C)C)C4)[C@@H](C)OCC3CCCCC3)CC2)cc1 [I-147] | ≤ 0.01
15 | C[C@@H](OCC1CCC(F)(F)CC1)[C@H](NC(=O)[C@@H]1CN(C(=O)c2cncs2)CC12CN(C(=O)[C@H]1CC1(C)C)C2)C(=O)N1CCC[C@H](COC(F)(F)F)C1 [I-326] | ≤ 0.01
16 | C[C@@H](OCC1CCCCC1)[C@H](NC(=O)[C@@H]1CN(C(=O)c2cnn(Cc3ccccc3)c2)CC12CN(C(=O)[C@H]1CC1(C)C)C2)C(=O)N1CCC(c2ccncc2)CC1 [I-300] | ≤ 0.01
17 | CNC(=O)[C@@H](NC(=O)[C@H]1CN(C(=O)c2scnc2C2CCCC2)CC12CN(C(=O)[C@H]1CC1(C)C)C2)[C@@H](C)OCC1CCCCC1 [I-224A] | 1 to 10
18 | CNC(=O)[C@@H](NC(=O)[C@@H]1CN(C(=O)c2cnn(Cc3ccccc3)c2)CC12CN(C(=O)[C@H]1CC1(C)C)C2)[C@@H](C)OCc1cccc(O)c1 [I-262] | 0.1 to 1

Row | Structure (SMILES) | IC50 [µM]
19 | CC1(C)C[C@@H]1C(=O)N1CC2(CN(C(=O)c3cnn(Cc4ccccc4)c3)C[C@H]2C(=O)N[C@@H]2CCN(C3CC3)C2=O)C1 [I-259] | > 10
20 | COC1CCN(C(=O)[C@@H](NC(=O)[C@@H]2CN(C(=O)c3cncs3)CC23CN(C(=O)[C@H]2CC2(C)C)C3)[C@@H](C)OCC2CCC(F)(F)CC2)CC1 [I-385] | ≤ 0.01
21 | CC1(C)C[C@@H]1C(=O)N1CC2(CN(C(=O)c3cnn(Cc4ccccc4)c3)C[C@H]2C(=O)NC2CCN(C(=O)c3ccccc3)CC2)C1 [I-61A] | 1 to 10
22 | COC[C@H]1CCCN(C(=O)[C@@H](NC(=O)[C@H]2CN(C(=O)c3cncs3)CC23CN(C(=O)[C@H]2CC2(C)C)C3)[C@@H](C)OCC2CCCCC2)C1 [I-196B] | ≤ 0.01
23 | CC1(C)C[C@@H]1C(=O)N1CC2(CN(C(=O)c3cnn(Cc4ccccc4)c3)C[C@H]2C(=O)N[C@H]2CCN(c3ccccc3)C2)C1 [I-206] | 0.1 to 1
24 | CNC(=O)[C@@H](NC(=O)[C@@]1(C)CN(C(=O)c2cnn(Cc3ccccc3)c2)CC12CN(C(=O)[C@H]1CC1(C)C)C2)[C@@H](C)OCC1CCCCC1 [I-499B] | > 10
25 | CNC(=O)[C@@H](NC(=O)[C@H]1CN(Cc2ccccn2)CC12CN(C(=O)[C@H]1CC1(C)C)C2)[C@@H](C)OCc1ccccc1 [I-40B] | > 10
26 | CNC(=O)[C@H](CCCc1ccccc1)NC(=O)[C@@H]1CN(C(=O)c2cnn(Cc3ccccc3)c2)CC12CN(C(=O)[C@H]1CC1(C)C)C2 [I-101A] | 0.1 to 1
27 | CNC(=O)[C@@H](NC(=O)[C@@H]1CN(C(=O)c2cnn(Cc3ccccc3)c2)CC12CN(C(=O)[C@H]1CC1(C)C)C2)[C@@H](C)OC[C@H]1CC[C@H](OC)CC1 [I-403] | 0.01 to 0.1
28 | CNC(=O)[C@@H](NC(=O)[C@@H]1CN(C(=O)c2cnn(Cc3ccccc3)c2)CC12CN(C(=O)[C@H]1CC1(C)C)C2)[C@@H](C)OCC(C)C [I-137A] | 0.1 to 1
29 | CNC(=O)C(NC(=O)[C@@H]1CN(C(=O)c2cncs2)CC12CN(C(=O)[C@H]1CC1(C)C)C2)c1ccc(C)nn1 (stereo partly shown) [I-420] | > 10
30 | CNC(=O)[C@@H](NC(=O)[C@@H]1CN(C(=O)c2cnc(C(C)(C)C)s2)CC12CN(C(=O)[C@H]1CC1(C)C)C2)[C@@H](C)OCC1CCCCC1 [I-229A] | > 10
31 | CNC(=O)C(NC(=O)[C@@H]1CN(C(=O)c2cnn(Cc3ccccc3)c2)CC12CN(C(=O)[C@H]1CC1(C)C)C2)c1ccc(C)nn1 (stereo partly shown) [I-421] | 1 to 10
32 | C[C@@H](OCc1ccccc1)[C@H](NC(=O)C1CN(C(=O)c2cnn(Cc3ccccc3)c2)CC12CN(C(=O)[C@H]1CC1(C)C)C2)C(=O)NCC#CCN (stereo partly shown) [I-28] | 0.1 to 1
33 | COC[C@H]1CCCN(C(=O)[C@@H](NC(=O)[C@@H]2CN(C(=O)c3cncs3)CC23CN(C(=O)[C@H]2CC2(C)C)C3)[C@@H](C)OCc2ccc(OC(F)(F)F)cc2)C1 [I-320] | ≤ 0.01
34 | C[C@@H](OCC1CCC(F)(F)CC1)[C@H](NC(=O)[C@@H]1CN(C(=O)c2cn[nH]c2)CC12CN(C(=O)[C@H]1CC1(C)C)C2)C(=O)N1CCOCC1 [I-301, (S)—N-((2S,3R)-3-((4,4-difluorocyclohexyl)methoxy)-1-morpholino-1-oxobutan-2-yl)-2-((S)-2,2-dimethylcyclopropane-1-carbonyl)-6-(1H-pyrazole-4-carbonyl)-2,6-diazaspiro[3.4]octane-8-carboxamide] | ≤ 0.01
35 | COC[C@H]1CCCN(C(=O)[C@@H](NC(=O)[C@@H]2CN(C(=O)c3cncs3)CC23CN(C(=O)[C@H]2CC2(C)C)C3)[C@@H](C)OC[C@H]2CC[C@H](N)CC2)C1 [I-433] | 1 to 10

Results, then the molecule that gave them:

Row | IC50 [µM] | Structure (SMILES)
36 | > 10 | CNC(=O)[C@@H](NC(=O)[C@H]1CN(C(=O)c2ccccn2)CC12CN(C(=O)[C@H]1CC1(C)C)C2)[C@@H](C)OCc1ccccc1 [I-45B]
37 | ≤ 0.01 | C[C@@H](OCC1CCCCC1)[C@H](NC(=O)[C@@H]1CN(C(=O)c2cnn(Cc3ccccc3)c2)CC12CN(C(=O)[C@H]1CC1(C)C)C2)C(=O)N1CCC(c2nnco2)CC1 [I-449]
38 | 0.01 to 0.1 | C[C@@H](OCc1ccccc1)[C@H](NC(=O)C1CN(C(=O)c2cnn(Cc3ccccc3)c2)CC12CN(C(=O)[C@H]1CC1(C)C)C2)C(=O)N1CCNCC1 (stereo partly shown) [I-32]
39 | > 10 | CNC(=O)[C@@H](NC(=O)[C@H]1CN(C(=O)c2cnn(Cc3ccccc3)c2)CC12CN(C(=O)C1(C(F)(F)F)CC1)C2)[C@@H](C)OCc1ccccc1 [I-108B]
40 | > 10 | CNC(=O)[C@@H](NC(=O)[C@@H]1CN(C(=O)c2cncs2)CC12CN(CC1CCCO1)C2)[C@@H](C)OCC1CCCCC1 (stereo partly shown) [I-352]
41 | 0.01 to 0.1 | CNC(=O)[C@@H](NC(=O)[C@@H]1CN(C(=O)c2sc(Cl)nc2C)CC12CN(C(=O)[C@H]1CC1(C)C)C2)[C@@H](C)OCC1CCCCC1 [I-208A]
42 | ≤ 0.01 | C[C@@H](OCC1CCCCC1)[C@H](NC(=O)[C@@H]1CN(C(=O)c2cnn(Cc3ccccc3)c2)CC12CN(C(=O)[C@H]1CC1(C)C)C2)C(=O)NCC(C)(C)C(=O)O [I-472]
43 | > 10 | CC(C)O[C@H]1C[C@H](NC(=O)[C@@H]2CN(C(=O)c3cnn(Cc4ccccc4)c3)CC23CN(C(=O)[C@H]2CC2(C)C)C3)C1 [I-233]
44 | > 10 | CNC(=O)[C@@H](NC(=O)[C@@H]1CN(C(=O)c2cncs2)CC12CN(Cc1cnco1)C2)[C@@H](C)OCC12CCC(CC1)OC2 [I-350]
45 | ≤ 0.01 | C[C@@H](OCC1CCCCC1)[C@H](NC(=O)[C@@H]1CN(C(=O)c2cnn(Cc3ccccc3)c2)CC12CN(C(=O)[C@H]1CC1(C)C)C2)C(=O)N1CCOCC1 [I-152A]
46 | > 10 | CNC(=O)[C@@H](NC(=O)[C@H]1CN(C(=O)c2cnn(Cc3ccccc3)c2)CC12CN(C(=O)C1(C)CC1)C2)[C@@H](C)OCc1ccccc1 [I-67B]
47 | 1 to 10 | Cc1ccc2[nH]c(CNC(=O)C3CN(C(=O)c4cnn(Cc5ccccc5)c4)CC34CN(C(=O)[C@H]3CC3(C)C)C4)nc2c1 (stereo partly shown) [I-278]
48 | 0.1 to 1 | CNC(=O)[C@@H](NC(=O)[C@H]1CN(C(=O)c2scnc2Cl)CC12CN(C(=O)[C@H]1CC1(C)C)C2)[C@@H](C)OCC1CCCCC1 [I-157B]
49 | ≤ 0.01 | COC[C@H]1CCCN(C(=O)[C@@H](NC(=O)[C@@H]2CN(C(=O)c3cncs3)CC23CN(C(=O)C(C)(C)C2CC2)C3)[C@@H](C)OC(C)C2CCC(F)(F)CC2)C1 (stereo partly shown) [I-399]
50 | 0.01 to 0.1 | CNC(=O)[C@@H](NC(=O)[C@@H]1CN(C(=O)c2cncs2)CC12CN(C(=O)[C@H]1CC1(C)C)C2)[C@@H](C)OC1C2CC3CC(C2)CC1C3 (stereo partly shown) [I-463]
51 | 1 to 10 | CC1(C)C[C@@H]1C(=O)N1CC2(CN(C(=O)c3cnn(Cc4ccccc4)c3)C[C@H]2C(=O)Nc2cccc(Cc3ccccc3)c2)C1 [I-75A]
52 | > 10 | CNC(=O)[C@@H](NC(=O)[C@@H]1CN(Cc2cnn(Cc3ccccc3)c2)CC12CN(C(=O)[C@H]1CC1(C)C)C2)[C@@H](C)OCc1ccccc1 [I-16A]
